Data: ChEMBL document CHEMBL1152755, “Synthesis and cytotoxic properties of 4,11-bis[(aminoethyl)amino]anthra[2,3-b]thiophene-5,10-diones, novel analogues of antitumor anthracene-9,10-diones” (2009)
Activity calls are given as the source filed them. No cut-off for these calls is given here.

How the values were obtained:
[1] = tested on: HCT-116; test: Resistance index, ratio IC50 for HCT116 cells to IC50 for p53 deleted human HCT116 cells; type: functional
[2] = tested on: K562; test: Resistance index, ratio IC50 for human K562 cells to IC50 for P-gp positive human K562 cells; type: functional
[3] = biological target: T1, DNA topoisomerase 1 (Homo sapiens) (UniProt P11387); test: Inhibition of topoisomerase 1-mediate pHot DNA relaxation measured by electrophoretic mobility
T1 sequence (whole entry): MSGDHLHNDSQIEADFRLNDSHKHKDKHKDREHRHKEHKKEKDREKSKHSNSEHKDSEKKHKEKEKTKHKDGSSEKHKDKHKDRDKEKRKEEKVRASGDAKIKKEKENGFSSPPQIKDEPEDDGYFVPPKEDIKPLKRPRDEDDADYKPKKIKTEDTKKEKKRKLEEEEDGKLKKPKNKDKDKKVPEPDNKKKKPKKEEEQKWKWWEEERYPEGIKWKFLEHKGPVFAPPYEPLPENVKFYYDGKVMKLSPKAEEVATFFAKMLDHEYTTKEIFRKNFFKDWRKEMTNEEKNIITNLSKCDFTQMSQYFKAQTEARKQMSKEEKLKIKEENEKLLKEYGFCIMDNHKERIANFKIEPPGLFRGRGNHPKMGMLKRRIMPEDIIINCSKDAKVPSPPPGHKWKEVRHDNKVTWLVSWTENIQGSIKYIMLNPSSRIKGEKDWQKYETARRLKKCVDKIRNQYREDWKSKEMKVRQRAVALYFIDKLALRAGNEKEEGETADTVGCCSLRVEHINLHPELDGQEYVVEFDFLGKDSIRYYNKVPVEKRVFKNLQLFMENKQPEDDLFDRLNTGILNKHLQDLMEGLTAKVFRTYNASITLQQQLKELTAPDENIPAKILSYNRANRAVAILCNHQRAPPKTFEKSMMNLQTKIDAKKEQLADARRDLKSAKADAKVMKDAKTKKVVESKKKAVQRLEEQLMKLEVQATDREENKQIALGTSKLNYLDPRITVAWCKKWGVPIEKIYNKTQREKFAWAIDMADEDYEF

[4] = biological target: Telomerase reverse transcriptase (Homo sapiens) (UniProt O14746); test: Inhibition of telomerase at 1 uM by TRAP assay
Telomerase reverse transcriptase (Homo sapiens), sequence (O14746 whole entry): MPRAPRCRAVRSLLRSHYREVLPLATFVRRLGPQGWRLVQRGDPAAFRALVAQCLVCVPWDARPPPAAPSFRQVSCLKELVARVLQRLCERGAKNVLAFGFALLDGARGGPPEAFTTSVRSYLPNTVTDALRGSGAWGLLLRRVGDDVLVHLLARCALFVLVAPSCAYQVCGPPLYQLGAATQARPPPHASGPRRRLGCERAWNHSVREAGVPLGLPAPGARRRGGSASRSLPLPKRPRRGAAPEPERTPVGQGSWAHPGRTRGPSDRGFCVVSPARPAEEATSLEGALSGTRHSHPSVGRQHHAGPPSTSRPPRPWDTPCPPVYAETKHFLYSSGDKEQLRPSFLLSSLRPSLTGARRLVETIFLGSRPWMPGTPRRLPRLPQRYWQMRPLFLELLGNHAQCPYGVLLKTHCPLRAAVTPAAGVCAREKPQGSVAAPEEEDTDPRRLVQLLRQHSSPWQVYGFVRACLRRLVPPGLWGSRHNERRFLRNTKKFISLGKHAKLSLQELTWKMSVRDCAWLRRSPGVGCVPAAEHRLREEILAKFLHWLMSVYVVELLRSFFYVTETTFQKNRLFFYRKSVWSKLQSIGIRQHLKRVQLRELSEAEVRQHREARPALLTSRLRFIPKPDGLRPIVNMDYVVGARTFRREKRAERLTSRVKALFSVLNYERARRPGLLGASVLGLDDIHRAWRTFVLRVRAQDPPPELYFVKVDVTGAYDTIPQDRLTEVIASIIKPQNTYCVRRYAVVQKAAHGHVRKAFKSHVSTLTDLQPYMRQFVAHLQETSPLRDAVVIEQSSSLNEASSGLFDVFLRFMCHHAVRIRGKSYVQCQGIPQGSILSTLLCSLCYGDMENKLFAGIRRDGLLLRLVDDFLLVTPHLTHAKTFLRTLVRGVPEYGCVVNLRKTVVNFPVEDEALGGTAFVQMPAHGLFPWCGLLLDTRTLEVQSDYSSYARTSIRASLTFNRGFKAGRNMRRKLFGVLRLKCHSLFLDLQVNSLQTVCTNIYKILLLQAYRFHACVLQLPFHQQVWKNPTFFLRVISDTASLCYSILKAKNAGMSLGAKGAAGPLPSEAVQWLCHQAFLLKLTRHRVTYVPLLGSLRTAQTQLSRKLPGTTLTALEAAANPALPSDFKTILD

Activity [3] | Activity [4] | Structure (SMILES) | Ratio IC50 [1] | Ratio IC50 [2]
– | – | CN(C)CCNc1c2c(c(NCCN(C)C)c3sc(C(=O)NN)cc13)C(=O)c1ccccc1C2=O | >25 | >90
Active | Active | CNCCNc1c2c(c(NCCNC)c3sccc13)C(=O)c1ccccc1C2=O | 0.6 | 1.4
– | – | CN(C)CCNc1c2c(c(NCCN(C)C)c3sc(C(=O)NCCO)cc13)C(=O)c1ccccc1C2=O | – | >6
– | Active | N=C(N)NCCNc1c2c(c(NCCNC(=N)N)c3sccc13)C(=O)c1ccccc1C2=O | >25 | 3.4
– | Active | CN(CCNc1c2c(c(NCCN(C)C(=N)N)c3sccc13)C(=O)c1ccccc1C2=O)C(=N)N | >24 | –
– | – | CC(=O)OCCNCCNc1c2c(c(NCCNCCOC(C)=O)c3sccc13)C(=O)c1ccccc1C2=O | – | >18
– | – | Cc1csc2c(NCCN)c3c(c(NCCN)c12)C(=O)c1ccccc1C3=O | >83 | 5
– | – | CNC(=O)c1cc2c(NCCN(C)C)c3c(c(NCCN(C)C)c2s1)C(=O)c1ccccc1C3=O | 4.2 | 1.1
– | – | CNCCNc1c2c(c(NCCNC)c3[nH]ccc13)C(=O)c1ccccc1C2=O | 1 | 3.1
– | – | Cc1csc2c(NCCN(C)C)c3c(c(NCCN(C)C)c12)C(=O)c1ccccc1C3=O | 8.4 | 1.8
– | – | CNCCNc1c2c(c(NCCNC)c3c(C)csc13)C(=O)c1ccccc1C2=O | 2.7 | 2
– | – | COc1cccc2c1C(=O)c1c(O)c3c(c(O)c1C2=O)C[C@@](O)(C(=O)CO)C[C@@H]3O[C@H]1C[C@H](N)[C@H](O)[C@H](C)O1 [DOXORUBICIN] | – | 51
– | – | O=C1c2ccccc2C(=O)c2c1c(NCCNCCO)c1ccsc1c2NCCNCCO | – | >12
– | – | CNCCNc1c2c(c(NCCNC)c3sc(C(=O)NC)cc13)C(=O)c1ccccc1C2=O | – | >11
– | – | CN(C)CCNc1c2c(c(NCCN(C)C)c3sccc13)C(=O)c1ccccc1C2=O | 0.6 | 2.3
